Measurements taken from publication PMC12396409, “Screening and hit evaluation of a microbial metabolite library against the pathogenic Plasmodium falciparum and Toxoplasma gondii parasites” (International Journal for Parasitology: Drugs and Drug …, 2025).
Where two headings read alike, the source gives them in different places.

Key:
[1] = system: P. falciparum 3D7 parasites; experiment: P. falciparum growth inhibition assay, 2-cycle (120 h treatment), delayed-death screen and dose-response; type: cell-based, Plasmodium falciparum; conditions: for activity at 2 µg/mL: Plasmodium falciparum
[2] = system: T. gondii RH strain (RH-Tub-eYFP) tachyzoites; experiment: microbe, parasite or virus in culture; type: cell-based, Toxoplasma gondii; conditions: 72 h; for percent parasite growth at 2 µg/mL: Toxoplasma gondii
[3] = system: P. falciparum 3D7 parasites; experiment: P. falciparum growth inhibition assay, 1-cycle (72 h treatment), SYBR DNA staining (library screen at 2 μg/mL and dose-response); type: cell-based, Plasmodium falciparum; conditions: for activity at 2 µg/mL: Plasmodium falciparum
[4] = P. falciparum, 120 h, parasite screen 2 μg/mL, % growth, replicate 1
[5] = P. falciparum, 120 h, parasite screen 2 μg/mL, % growth, replicate 2
[6] = T. gondii, parasite screen 2 μg/mL, % growth, replicate 1
[7] = T. gondii, parasite screen 2 μg/mL, % growth, replicate 2
[8] = P. falciparum, 72 h, parasite screen 2 μg/mL, % growth, replicate 1
[9] = P. falciparum, 72 h, parasite screen 2 μg/mL, % growth, replicate 2

CO[C@H]1/C=C\C=C(/C)C(=O)Nc2cc(O)cc(c2O)[C@H](OC)[C@@H](C)C[C@H](OC)[C@H](O)[C@@H](C)/C=C(\C)[C@@H]1OC(N)=O [TAN 420C]
Pf_120h_%Growth_Rep1 [1, 4]: 31.69% | Pf_120h_%Growth_Rep2 [1, 5]: 5.24% | Tg_72h_%Growth_Rep1 [2, 6]: 82.44% | Tg_72h_%Growth_Rep2 [2, 7]: 97.92% | Pf_72h_%Growth_Rep1 [3, 8]: 3.02% | Pf_72h_%Growth_Rep2 [3, 9]: -2.54%

CCCCCC[C@H]1C(=O)O[C@H](C)[C@@H](O)/C=C/C=C/C=C/C=C/C=C(\C)[C@@H](O)C[C@H](O)C[C@H](O)C[C@H](O)C[C@H](O)C[C@H](O)C[C@@H]1O [Filipin II]
Pf_120h_%Growth_Rep1 ([1]; library screen at 2 μg/mL, 120 h, % growth, replicate 1): 90.65% | Pf_120h_%Growth_Rep2 ([1]; library screen at 2 μg/mL, 120 h, % growth, replicate 2): 90.94% | Tg_72h_%Growth_Rep1 ([2]; library screen at 2 μg/mL, % growth, replicate 1): 129.59% | Tg_72h_%Growth_Rep2 ([2]; library screen at 2 μg/mL, % growth, replicate 2): 103.40% | Pf_72h_%Growth_Rep1 ([3]; library screen at 2 μg/mL, 72 h, % growth, replicate 1): 85.18% | Pf_72h_%Growth_Rep2 ([3]; library screen at 2 μg/mL, 72 h, % growth, replicate 2): 87.84%

CC1=CC2C(O)CCCC2C(C)(C(O)=C2C(=O)CNC2=O)C1CCC(C)C(O)/C(C)=C/CC(O)/C=C/C(C)C(O)/C=C/CC(O)/C=C/CC(O)CC1CCCN1C(=N)N (stereo not drawn) [TPU-0037C]
Pf_120h_%Growth_Rep1 ([1]; P. falciparum, 120 h, screen at 2 μg/mL, replicate 1): 83.44% | Pf_120h_%Growth_Rep2 ([1]; P. falciparum, 120 h, screen at 2 μg/mL, replicate 2): 78.76% | Tg_72h_%Growth_Rep1 ([2]; T. gondii, screen at 2 μg/mL, replicate 1): 129.91% | Tg_72h_%Growth_Rep2 ([2]; T. gondii, screen at 2 μg/mL, replicate 2): 76.44% | Pf_72h_%Growth_Rep1 ([3]; P. falciparum, 72 h, screen at 2 μg/mL, replicate 1): 76.69% | Pf_72h_%Growth_Rep2 ([3]; P. falciparum, 72 h, screen at 2 μg/mL, replicate 2): 109.21%

COc1cc(C[C@H]2C(=O)OC[C@@H]2Cc2ccc3c(c2)OCO3)ccc1O [Pluviatolide]
Pf_120h_%Growth_Rep1 [1, 4]: 90.86% | Pf_120h_%Growth_Rep2 [1, 5]: 133.22% | Tg_72h_%Growth_Rep1 [2, 6]: 140.42% | Tg_72h_%Growth_Rep2 [2, 7]: 93.56% | Pf_72h_%Growth_Rep1 [3, 8]: 81.43% | Pf_72h_%Growth_Rep2 [3, 9]: 88.63%

C[C@H]1NC(=O)[C@@H]2CCCCN2C(=O)CN(C)C(=O)CNC(=O)[C@@H]2CCCCN2C(=O)[C@H](NC(=O)c2nc3ccccc3cc2O)[C@@H](C)NC(=O)[C@@H]2CCCCN2C(=O)CN(C)C(=O)CNC(=O)[C@@H]2CCCCN2C(=O)[C@@H]1NC(=O)c1nc2ccccc2cc1O [Quinaldopeptin]
Pf_120h_%Growth_Rep1 [1, 4]: 19.16% | Pf_120h_%Growth_Rep2 [1, 5]: 8.74% | Tg_72h_%Growth_Rep1 [2, 6]: 3.09% | Tg_72h_%Growth_Rep2 [2, 7]: 0.65% | Pf_72h_%Growth_Rep1 [3, 8]: 9.69% | Pf_72h_%Growth_Rep2 [3, 9]: 1.67%

O=[N+]([O-])c1ncc[nH]1 [Azomycin]
activity at 2 µg/mL ([1]; 3D7, 120 h, library screen at 2 μg/mL, 120 h, % growth, replicate 1, read-out: Pf_120h_%Growth_Rep1): 147% | activity at 2 µg/mL ([1]; 3D7, 120 h, library screen at 2 μg/mL, 120 h, % growth, replicate 2, read-out: Pf_120h_%Growth_Rep2): 91.9% | percent parasite growth at 2 µg/mL ([2]; library screen at 2 μg/mL, % growth, replicate 1, read-out: Tg_72h_%Growth_Rep1): 77.1% | percent parasite growth at 2 µg/mL ([2]; library screen at 2 μg/mL, % growth, replicate 2, read-out: Tg_72h_%Growth_Rep2): 71.1% | activity at 2 µg/mL ([3]; 3D7, 72 h, library screen at 2 μg/mL, 72 h, % growth, replicate 1, read-out: Pf_72h_%Growth_Rep1): 83.2% | activity at 2 µg/mL ([3]; 3D7, 72 h, library screen at 2 μg/mL, 72 h, % growth, replicate 2, read-out: Pf_72h_%Growth_Rep2): 88%

COc1cc(C)c2c(c1C=O)Oc1c(c(C)c(O)c3c1C(O)OC3=O)OC2=O (stereo not drawn) [Stictic acid]
activity at 2 µg/mL ([1]; 3D7, P. falciparum, 120 h, parasite screen 2 μg/mL, % growth, replicate 1, read-out: Pf_120h_%Growth_Rep1): 88.2% | activity at 2 µg/mL ([1]; 3D7, P. falciparum, 120 h, parasite screen 2 μg/mL, % growth, replicate 2, read-out: Pf_120h_%Growth_Rep2): 87.2% | percent parasite growth at 2 µg/mL ([2]; T. gondii, parasite screen 2 μg/mL, % growth, replicate 1, read-out: Tg_72h_%Growth_Rep1): 115% | percent parasite growth at 2 µg/mL ([2]; T. gondii, parasite screen 2 μg/mL, % growth, replicate 2, read-out: Tg_72h_%Growth_Rep2): 87% | activity at 2 µg/mL ([3]; 3D7, P. falciparum, 72 h, parasite screen 2 μg/mL, % growth, replicate 1, read-out: Pf_72h_%Growth_Rep1): 81.8% | activity at 2 µg/mL ([3]; 3D7, P. falciparum, 72 h, parasite screen 2 μg/mL, % growth, replicate 2, read-out: Pf_72h_%Growth_Rep2): 80.1%

COc1ccc2[nH]c3c(C)c4ccncc4c(C)c3c2c1 [BIA-M1952]
Pf_120h_%Growth_Rep2 [1]: -1.49% | Pf_120h_%Growth_Rep1 ([1]; P. falciparum 3D7, 120 h, parasite screen at 2 μg/mL, % growth, replicate 1): 10.32% | Tg_72h_%Growth_Rep1 ([2]; T. gondii, parasite screen at 2 μg/mL, % growth, replicate 1): 3.28% | Tg_72h_%Growth_Rep2 ([2]; T. gondii, parasite screen at 2 μg/mL, % growth, replicate 2): 1.49% | Pf_72h_%Growth_Rep1 ([3]; P. falciparum 3D7, 72 h, parasite screen at 2 μg/mL, % growth, replicate 1): 9.89% | Pf_72h_%Growth_Rep2 ([3]; P. falciparum 3D7, 72 h, parasite screen at 2 μg/mL, % growth, replicate 2): -0.96%

CN1CCC2(c3cccc4c3NC3N(C)CCC43C34CCN(C)C3Nc3ccccc34)c3ccccc3NC12 (stereo not drawn) [BIA-H1948]
Pf_120h_%Growth_Rep1 ([1]; P. falciparum 3D7, 120 h, library screen at 2 μg/mL, % growth, replicate 1): 10.24% | Pf_120h_%Growth_Rep2 ([1]; P. falciparum 3D7, 120 h, library screen at 2 μg/mL, % growth, replicate 2): -13.19% | Tg_72h_%Growth_Rep1 ([2]; T. gondii RH, library screen at 2 μg/mL, % growth, replicate 1): 27.32% | Tg_72h_%Growth_Rep2 ([2]; T. gondii RH, library screen at 2 μg/mL, % growth, replicate 2): 71.35% | Pf_72h_%Growth_Rep1 ([3]; P. falciparum 3D7, 72 h, library screen at 2 μg/mL, % growth, replicate 1): 8.04% | Pf_72h_%Growth_Rep2 ([3]; P. falciparum 3D7, 72 h, library screen at 2 μg/mL, % growth, replicate 2): 0.51%
